Measured values as given in publication PMC10080691, “Enzyme-Responsive Double-Locked Photodynamic Molecular Beacon for Targeted Photodynamic Anticancer Therapy” (Journal of the American Chemical Society, 2023).

Assays:
MMP-2 = target: T1, MMP-2 (Homo sapiens, UniProt P08253); assay: MMP-2-responsive fluorescence activation and cleavage (LC-MS); assay type: biochemical; settings: 1 μM; for on/off ratio (fluorescence intensity at 25 h / initial intensity): MMP-2 only (2 μg mL-1), PBS pH 7.4, 0.1% Tween 80, 37 °C
T1 sequence (P08253 110-660): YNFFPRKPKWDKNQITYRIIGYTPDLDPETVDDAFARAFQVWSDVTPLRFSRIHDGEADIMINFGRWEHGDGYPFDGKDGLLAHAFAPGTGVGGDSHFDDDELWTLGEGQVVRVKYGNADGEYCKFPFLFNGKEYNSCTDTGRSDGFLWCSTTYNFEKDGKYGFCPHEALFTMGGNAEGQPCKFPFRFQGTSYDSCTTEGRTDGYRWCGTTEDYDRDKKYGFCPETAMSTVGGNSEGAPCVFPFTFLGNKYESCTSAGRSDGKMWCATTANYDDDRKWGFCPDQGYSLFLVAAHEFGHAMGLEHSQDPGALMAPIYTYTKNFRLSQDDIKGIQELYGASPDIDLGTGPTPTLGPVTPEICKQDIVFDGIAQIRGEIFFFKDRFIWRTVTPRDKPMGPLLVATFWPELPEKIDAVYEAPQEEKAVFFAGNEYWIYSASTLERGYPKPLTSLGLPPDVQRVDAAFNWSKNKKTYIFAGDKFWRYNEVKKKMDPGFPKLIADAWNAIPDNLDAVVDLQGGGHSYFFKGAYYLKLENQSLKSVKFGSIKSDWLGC
Procedure: To examine the response of PMB 1 toward MMP-2 and cathepsin B, its absorption and fluorescence spectra were monitored in the presence of these stimuli at 37 °C over a period of 25 h, using the non-cleavable analogue 14 as the negative control. For studying the MMP-2-responsive effect, MMP-2 (2 μg mL^–1) in PBS at pH 7.4 was used to mimic the high serum levels of this enzyme in patients with cancer.[68] The effect of cathepsin B (using a concentration of 1 unit mL^–1) was studied in the working buffer mentioned above at pH 5.0 to mimic the lysosomal environment.[69] […] Similar results were obtained for the study using cathepsin B in the buffer (Figure S8e–h). […] The more flexible ring-opening structure, however, might slightly increase the separation of the two moieties, leading to a lower FRET efficiency,[70] which could explain the small increase in fluorescence intensity. For comparison, the effect of these enzymes was also studied for 14. As expected, both the absorption and fluorescence spectra were not changed toward these two enzymes (Figure S9).
The fluorescence recovery was then determined for 1 under the aforementioned conditions, assuming that the fluorescence intensity of 8 at the same concentration in the same medium was the maximum fluorescence intensity that could be recovered. […] In addition, we also determined the corresponding on/off ratios by dividing the fluorescence intensity at 25 h by the initial fluorescence intensity under each of these conditions. […]
To further confirm that the restoration of fluorescence emission and singlet oxygen generation of PMB 1 was due to the cleavage by the enzymes, LC–MS was used to analyze the reaction mixtures (Figure 4). […] Similarly, for the mixture obtained after treating 1 (1 μM) with cathepsin B (1 unit mL^–1) in the working buffer at pH 5.0 for 6 h, a new signal with virtually the same retention time was detected in the chromatogram (Figure 4a–c). […]
All of the solutions were stirred continuously at 37 °C. The ir electronic absorption and fluorescence spectra were monitored over a period of 25 h. […]

[1] = Fluorescence quantum yield in DMF; assay type: physicochemical; settings: excited at 610 nm, relative to ZnPc (ΦF = 0.28 in DMF)
From the text: The electronic absorption and fluorescence spectra of PMB 1 were first recorded in DMF and compared with those of the components 8 and 11, as well as the non-cleavable analogue 14 (Figure S2 and Table 1). […] In contrast, the fluorescence spectra of 1 and 14 were remarkably different from that of DSBDP 8.

Structure (SMILES): CCN(CC)c1ccc2nc3ccc(/N=N/c4ccc(N(C)CCCNC(=O)OC[C@@H]5[C@@H]6CCc7nnn(CC(=O)NCCCC[C@@H]8NC(=O)CNC(=O)[C@H](CCCCN)NC(=O)CNC(=O)CNC(=O)CNC(=O)CNC(=O)CNC(=O)[C@H](CCCCN)NC(=O)[C@@H](N)CSCc9cc(COc%10ccc(C%11=C%12C(C)=C(I)C(/C=C/c%13ccc(OCCOCCOCCOC)cc%13)=[N+]%12[B-](F)(F)n%12c(/C=C/c%13ccc(OCCOCCOCCOC)cc%13)c(I)c(C)c%12%11)cc%10)cc(c9)CSC[C@@H](C(N)=O)NC(=O)[C@H](CCCCN)NC(=O)[C@H](CCCCN)NC(=O)CNC(=O)CNC(=O)CNC(=O)CNC(=O)[C@H](CCCCN)NC(=O)CNC8=O)c7CC[C@@H]65)cc4)cc3[n+](-c3ccccc3)c2c1 [compound 14]
- on/off ratio (fluorescence intensity at 25 h / initial intensity) (MMP-2): below 1.5
- ΦF (fluorescence quantum yield) [1]: 0.01

Structure (SMILES): CCN(CC)c1ccc2nc3ccc(/N=N/c4ccc(N(C)CCCNC(=O)OC[C@@H]5[C@@H]6CCc7nnn(CC(=O)NCCCC[C@@H]8NC(=O)CNC(=O)[C@H](CCCCN)NC(=O)[C@H](CCCNC(=N)N)NC(=O)[C@H](C(C)C)NC(=O)CNC(=O)[C@H](CC(C)C)NC(=O)[C@@H]9CCCN9C(=O)[C@H](CCCCN)NC(=O)[C@@H](N)CSCc9cc(COc%10ccc(C%11=C%12C(C)=C(I)C(/C=C/c%13ccc(OCCOCCOCCOC)cc%13)=[N+]%12[B-](F)(F)n%12c(/C=C/c%13ccc(OCCOCCOCCOC)cc%13)c(I)c(C)c%12%11)cc%10)cc(c9)CSC[C@@H](C(N)=O)NC(=O)[C@H](CCCCN)NC(=O)[C@H](CCCCN)NC(=O)CNC(=O)[C@H](CC(C)C)NC(=O)[C@H](Cc9ccccc9)NC(=O)CNC(=O)[C@H](CCCCN)NC(=O)CNC8=O)c7CC[C@@H]65)cc4)cc3[n+](-c3ccccc3)c2c1 [compound 1]
- LC-MS signal of intact compound after enzyme treatment (MMP-2; MMP-2 (2 μg mL-1) in PBS, 6 h, new signal at 14.7 min (15)): disappeared
- on/off ratio (fluorescence intensity at 25 h / initial intensity) (MMP-2): ca. 2.7
- ΦF (fluorescence quantum yield) [1]: 0.01
